This is an account of results in ChEMBL document CHEMBL1138844, “Synthesis and biological evaluation of 1-aryl-4,5-dihydro-1H-pyrazolo[3,4-d]pyrimidin-4-one inhibitors of cyclin-dependent kinases” (J Med Chem, 2004).

One data set relates to COLO 205. Description: Inhibitory concentration against human colon cell line COLO 205 was determined. The format is functional, cell-based.
In the next data set the test system is A498. Nature of the data set: Inhibitory concentration against human kidney cell line A498 was determined. The format is functional, cell-based.
Data set [1] has as its target Cyclin-dependent kinase 2/cyclin E (Homo sapiens, UniProt P24941).
Description: Inhibition of Cyclin-dependent kinase 2-cyclin E
Data set [2] can be described thus: Inhibitory concentration against NCI H460 cell line was determined. The format is functional, cell-based, Homo sapiens.
Data set [3] has as its target Cyclin-dependent kinase 1/cyclin B (Homo sapiens, UniProt P06493). Description: Inhibition of Cyclin-dependent kinase 1-cyclin B. The format is protein-complex assay.
The test system of another data set is DU-145. Nature of the data set: Inhibitory concentration against human prostate cell line DU145 was determined. The format is functional, cell-based.
In another data set the test system is T47D. Description: Inhibitory concentration against human breast cell line T47D was determined. The format is functional, cell-based.
The test system of data set [4] is HCT-116. Nature of the data set: Inhibitory concentration against human colon cell line HCT116 was determined. The format is functional, cell-based.
Data set [5] in a line: Inhibitory concentration against human breast cell line MDA MB468 was determined. The format is functional, cell-based. The following applies: mda-mb-468.
Data set [6] relates to HCT-116. Description: Inhibition of human colon carcinoma cell (HCT116) proliferation. The format is functional, cell-based.
Data set [7] in a line: Partition coefficient (logP). The format is physicochemical. The following applies: octanol/water.
The target in data set [8] is T1, Cyclin-dependent kinase 4/cyclin D1 (Homo sapiens, UniProt P11802). Description: Inhibition of Cyclin-dependent kinase 4-cyclin D1. The format is protein-complex assay.
T1 sequence (P11802 whole entry): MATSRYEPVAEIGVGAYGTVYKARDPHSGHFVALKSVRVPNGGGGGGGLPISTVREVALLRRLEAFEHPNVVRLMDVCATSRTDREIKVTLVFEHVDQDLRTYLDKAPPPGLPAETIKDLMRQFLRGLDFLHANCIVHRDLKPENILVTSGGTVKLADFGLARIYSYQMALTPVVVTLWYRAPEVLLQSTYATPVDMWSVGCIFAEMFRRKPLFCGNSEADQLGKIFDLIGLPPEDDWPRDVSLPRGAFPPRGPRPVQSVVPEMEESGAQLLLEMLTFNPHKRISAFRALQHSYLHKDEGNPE
T1 sequence (P24385 whole entry, further chain): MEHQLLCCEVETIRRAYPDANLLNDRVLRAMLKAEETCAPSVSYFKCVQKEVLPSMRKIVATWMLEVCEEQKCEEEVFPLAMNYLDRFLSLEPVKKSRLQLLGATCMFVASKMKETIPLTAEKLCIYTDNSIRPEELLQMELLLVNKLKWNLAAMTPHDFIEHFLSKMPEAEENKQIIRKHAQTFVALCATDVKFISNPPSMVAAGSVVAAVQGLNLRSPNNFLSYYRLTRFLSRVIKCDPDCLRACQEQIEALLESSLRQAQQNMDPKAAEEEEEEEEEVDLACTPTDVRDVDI
The subject of a further data set is MCF7. Nature of the data set: Inhibitory concentration against human breast cell line MCF-7 was determined. The format is functional, cell-based.
A short description of data set [9]: Inhibition of Protein Kinase A activity.
For data set [10], the target named is T1, Cyclin-dependent kinase 4/cyclin D1. Nature of the data set: Inhibition of Cyclin-dependent kinase 4/cyclin D1. The format is protein-complex assay.
Data set [11] deals with Tyrosine-protein kinase ABL1 (Homo sapiens, UniProt P00519).
Chain of Tyrosine-protein kinase ABL1 (P00519 whole entry): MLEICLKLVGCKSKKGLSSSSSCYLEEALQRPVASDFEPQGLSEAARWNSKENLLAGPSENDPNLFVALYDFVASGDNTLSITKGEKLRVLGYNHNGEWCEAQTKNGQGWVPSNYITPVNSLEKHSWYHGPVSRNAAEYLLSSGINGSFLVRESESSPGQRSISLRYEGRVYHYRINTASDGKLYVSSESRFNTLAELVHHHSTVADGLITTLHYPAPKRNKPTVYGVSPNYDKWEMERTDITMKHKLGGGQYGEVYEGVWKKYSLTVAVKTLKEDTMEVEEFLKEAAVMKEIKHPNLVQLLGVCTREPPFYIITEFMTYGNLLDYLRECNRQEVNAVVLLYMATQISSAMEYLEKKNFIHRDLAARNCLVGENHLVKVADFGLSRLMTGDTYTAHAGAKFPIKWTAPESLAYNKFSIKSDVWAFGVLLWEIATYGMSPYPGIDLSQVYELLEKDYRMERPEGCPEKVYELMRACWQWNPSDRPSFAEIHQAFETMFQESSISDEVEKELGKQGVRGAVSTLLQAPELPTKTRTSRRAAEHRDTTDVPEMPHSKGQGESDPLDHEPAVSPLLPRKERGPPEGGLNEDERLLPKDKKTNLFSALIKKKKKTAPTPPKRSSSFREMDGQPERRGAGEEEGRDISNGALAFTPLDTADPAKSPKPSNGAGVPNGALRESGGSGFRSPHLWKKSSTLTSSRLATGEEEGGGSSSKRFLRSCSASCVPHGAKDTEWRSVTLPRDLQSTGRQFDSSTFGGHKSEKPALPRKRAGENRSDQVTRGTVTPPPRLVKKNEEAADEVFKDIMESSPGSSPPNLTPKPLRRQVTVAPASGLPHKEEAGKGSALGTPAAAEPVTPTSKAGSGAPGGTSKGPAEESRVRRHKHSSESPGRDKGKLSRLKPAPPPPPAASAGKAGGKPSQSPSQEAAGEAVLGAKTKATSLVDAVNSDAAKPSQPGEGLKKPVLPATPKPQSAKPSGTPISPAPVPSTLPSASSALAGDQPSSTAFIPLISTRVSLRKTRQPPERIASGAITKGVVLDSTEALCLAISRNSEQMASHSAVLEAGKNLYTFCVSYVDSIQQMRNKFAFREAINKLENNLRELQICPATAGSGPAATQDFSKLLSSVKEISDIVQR
Description: Inhibition of c-Abl tyrosine kinase activity
In data set [12] the test system is HCT-116. Description: Concentration required for growth inhibition of human colon carcinoma cell line HCT116. The format is functional, cell-based.
The subject of the next data set is AG1523. Description: Concentration required for growth inhibition of human fibroblast cell line Ag 1523. The format is functional, cell-based.

Where only a bound is given, the exact number is not on record here.

Consider `CN(C)c1ccc(C(=C2C=CC(=[N+](C)C)C=C2)c2ccc(N(C)C)cc2)cc1.CN(C)c1ccc(C(=C2C=CC(=[N+](C)C)C=C2)c2ccc(N(C)C)cc2)cc1.CN=C1C=CC(=C(c2ccc(N(C)C)cc2)c2ccc(N(C)C)cc2)C=C1`, for which the IC50 worked out at 13 nM in the data set on COLO 205; 57 nM in the data set with A498; 10 nM in data set [1]; 16 nM in [2]; 100 nM in data set [3]; 15 nM in the data set with DU-145. Besides, the IC50 in the data set with T47D stood at 16 nM; in the data set on HCT-116 [4], 34 nM; in [5], 12 nM; in the data set with HCT-116 [6], 30 nM; in [8], 590 nM; with MCF7 it was 14 nM. Moreover, in [7], the log partition coefficient (logP) stood at 4.2.
Take `CCc1nn(-c2c(Cl)cc(Cl)cc2Cl)c2nc(Cc3ccc(OC)cc3)[nH]c(=O)c12`: the half-inhibitory concentration (IC50) is 10 nM in data set [1], 150 nM in data set [3], 600 nM in the data set with HCT-116 [6] and 2200 nM in data set [8].
For `CCc1nn(-c2c(Cl)cc(Cl)cc2Cl)c2nc(Cc3cccc(N)c3)[nH]c(=O)c12`, in that order: 40 nM, 270 nM, 470 nM and 2900 nM.
Take `CCc1nn(-c2c(Cl)cc(Cl)cc2Cl)c2nc(Cc3cccc(O)c3)[nH]c(=O)c12`: the IC50 in data set [1] was found to be 10 nM; in [3], 190 nM; in the data set on HCT-116 [6], 400 nM; in [8], 60 nM.
For `CCc1nn(-c2c(Cl)cc(Cl)cc2Cl)c2nc(Cc3ccc(O)c(C)c3)[nH]c(=O)c12`, the half-maximal inhibitory concentration (IC50) in data set [1] was 20 nM; in data set [3], more than 270 nM; in the data set with HCT-116 [6], 500 nM; in data set [8] it was more than 2200 nM.
`CCc1nn(-c2c(Cl)cc(Cl)cc2Cl)c2nc(Cc3ccc(C)c(O)c3)[nH]c(=O)c12`: the IC50 in data set [1] is 20 nM; in data set [3], 520 nM; with HCT-116 [6], 670 nM; in data set [8] it was 80 nM.
Turning to `CCc1nn(-c2c(Cl)cc(Cl)cc2Cl)c2nc(Cc3ccc(OC)c(O)c3)[nH]c(=O)c12`, the IC50 in data set [1] turned out to be 10 nM; in [3], 200 nM; in the data set with HCT-116 [6], 130 nM; in data set [8] it was 20 nM.
For `CCc1nn(-c2c(Cl)cc(Cl)cc2Cl)c2nc(Cc3cccc(C)c3)[nH]c(=O)c12`, in that order: 390 nM, more than 560 nM, 2100 nM and more than 2200 nM.
On to `CCc1nn(-c2c(Cl)cc(Cl)cc2Cl)c2nc(Cc3ccccc3O)[nH]c(=O)c12`, for which the half-inhibitory concentration (IC50) in data set [1] is 120 nM; in the data set on HCT-116 [6], 5500 nM; in [8], more than 11000 nM.
Turning to `CCc1nn(-c2c(Cl)cc(Cl)cc2Cl)c2nc(Cc3ccc(NC(C)=O)cc3)[nH]c(=O)c12`, the IC50 in [1] is 9 nM; in data set [3], 30 nM; with HCT-116 [6], 20 nM; in data set [8], 1300 nM. In addition, the logP in [7] worked out at 3.9.
Turning to `CCc1nn(-c2c(Cl)cc(Cl)cc2Cl)c2nc(Cc3ccc(O)cc3)[nH]c(=O)c12`, the 50% inhibitory concentration (IC50) in [1] turned out to be 10 nM; in data set [3], 100 nM; in the data set with HCT-116 [6] it was 90 nM; in data set [8], 2000 nM.
For the compound `CCc1nn(-c2c(Cl)cc(Cl)cc2Cl)c2nc(Cc3ccncc3)[nH]c(=O)c12`, the IC50 in data set [1] came to 30 nM; in data set [3], 490 nM; in the data set on HCT-116 [6], 550 nM; in [8] it was 3000 nM.
As to `CCc1nn(-c2c(Cl)cc(Cl)cc2Cl)c2nc(Cc3ccccn3)[nH]c(=O)c12`, the concentration for half-maximal inhibition (IC50) in data set [1] is 230 nM; in the data set with HCT-116 [6] it was 3700 nM; in data set [8], 9700 nM.
Take `CSc1nn(-c2c(Cl)cc(Cl)cc2Cl)c2nc(Cc3ccccc3)[nH]c(=O)c12`: the half-inhibitory concentration (IC50) in data set [1] was 440 nM; in data set [8], 11000 nM.
In the case of `CCc1nn(-c2c(Cl)cc(Cl)cc2Cl)c2nc(Cc3ccccc3CO)[nH]c(=O)c12`, the IC50 in data set [1] was 20 nM; in data set [3] it was more than 270 nM; in the data set with HCT-116 [6] it was 490 nM; in data set [8], 2900 nM.
`CCc1nn(-c2c(Cl)cc(Cl)cc2Cl)c2nc(Cc3ccc(N(C)C)cc3)[nH]c(=O)c12`: the IC50 in data set [1] is 20 nM; in [3], more than 260 nM; in the data set on HCT-116 [6], 340 nM; in data set [8], more than 2100 nM.
As to `CCc1nn(-c2c(Cl)cc(Cl)cc2Cl)c2nc(Cc3ccccc3OC)[nH]c(=O)c12`, the IC50 in [1] was 100 nM; in the data set on HCT-116 [6], 3400 nM; in data set [8], more than 22000 nM.
As for `CCOC(=O)Cc1cccc(Cc2nc3c(c(CC)nn3-c3c(Cl)cc(Cl)cc3Cl)c(=O)[nH]2)c1`, the IC50 in data set [1] was 150 nM; in [8], more than 1900 nM.
For the compound `CCc1nn(-c2c(Cl)cc(Cl)cc2Cl)c2nc(Cc3ccc(OC)c(OC)c3)[nH]c(=O)c12`, the IC50 in data set [1] was 110 nM; in data set [3], more than 510 nM; in the data set with HCT-116 [6] it was 610 nM; in [8], 4500 nM.
Regarding `CCc1nn(-c2c(Cl)cc(Cl)cc2Cl)c2nc(Cc3ccc(Br)cc3)[nH]c(=O)c12`, the IC50 in [1] was 50 nM; in the data set with HCT-116 [6], 2300 nM; in [8], more than 1200 nM.
As for `CCc1nn(-c2c(Cl)cc(Cl)cc2Cl)c2nc(Cc3ccccc3)[nH]c(=O)c12`, the IC50 in data set [1] is 20 nM; in [3], 260 nM; in the data set with HCT-116 [6], 600 nM; in data set [8] it was 3000 nM.
In the case of `CCc1nn(-c2c(Cl)cc(Cl)cc2Cl)c2nc(Cc3ccc(O)c(OC)c3)[nH]c(=O)c12`, the IC50 in data set [1] worked out at 70 nM; in data set [3], 860 nM; in the data set with HCT-116 [6], 320 nM; in data set [8] it was 6600 nM.
Turning to `CCc1nn(-c2c(Cl)cc(Cl)cc2Cl)c2nc(Cc3cc(O)cc(O)c3)[nH]c(=O)c12`, the results for the IC50 (in [1]; in the data set with HCT-116 [6]; in data set [8]) were 20 nM, 300 nM and 50 nM, respectively.
As to `CCc1nn(-c2c(Cl)cc(Cl)cc2Cl)c2nc(Cc3ccc(N)cc3)[nH]c(=O)c12`, the IC50 in [1] came out at 10 nM; in data set [3], 150 nM; in the data set on HCT-116 [6], 420 nM; in data set [8], 2700 nM. Further, the logP in data set [7] was determined as 3.8.
As for `CCc1nn(-c2c(Cl)cc(Cl)cc2Cl)c2nc(Cc3cccc(NS(C)(=O)=O)c3)[nH]c(=O)c12`, the IC50 came to 260 nM in data set [1], 470 nM with HCT-116 [6] and 160 nM in data set [8].
As to `CCc1nn(-c2c(Cl)cc(Cl)cc2Cl)c2nc(Cc3ccc(OC)c(C)c3)[nH]c(=O)c12`, the IC50 in data set [1] was 60 nM; in [3] it was 870 nM; with HCT-116 [6], 2100 nM; in data set [8], more than 2100 nM.
Regarding `CCc1nn(-c2c(Cl)cc(Cl)cc2Cl)c2nc(Cc3cccnc3)[nH]c(=O)c12`, the IC50 in data set [1] stood at 10 nM; in [3], 220 nM; with HCT-116 [6] it was 300 nM; in data set [8], 1300 nM.
As for `CCc1nn(-c2c(Cl)cc(Cl)cc2Cl)c2nc(Cc3ccc(C)c(OC)c3)[nH]c(=O)c12`, the half-maximal inhibitory concentration (IC50) in data set [1] was 110 nM; in the data set with HCT-116 [6], 9500 nM; in data set [8], 2100 nM.
`CSc1nn(-c2c(Cl)cc(Cl)cc2Cl)c2nc(C)[nH]c(=O)c12`: the IC50 in [1] is 360 nM; in [3], 6200 nM; in [9], more than 500000 nM; in [10], 2100 nM; in [11], 420000 nM; in data set [8] it was 2100 nM. For the same compound, the IC50 turned out to be 2500 nM in the data set on HCT-116 [12] and 9200 nM in the data set on AG1523.
Take `CCc1nn(-c2c(Cl)cc(Cl)cc2Cl)c2nc(Cc3ccc(O)c(O)c3)[nH]c(=O)c12`: the IC50 in data set [3] turned out to be 240 nM; in the data set with HCT-116 [6], 720 nM; in [8], 40 nM.
Consider `CCc1nn(-c2c(Cl)cc(Cl)cc2Cl)c2nc(Cc3ccc(NC(=O)CNC(=O)OC(C)(C)C)cc3)[nH]c(=O)c12`, for which the IC50 came to 10 nM in data set [1], 180 nM in data set [3], 160 nM with HCT-116 [6] and 1700 nM in [8]. Besides, in data set [7], the logP was found to be 4.9.
For `CCc1nn(-c2c(Cl)cc(Cl)cc2Cl)c2nc(Cc3cccc(OC)c3)[nH]c(=O)c12`, the IC50 in data set [1] was found to be 30 nM; in data set [3], 410 nM; with HCT-116 [6], 1700 nM; in data set [8] it was 5000 nM.
Consider `CCc1nn(-c2c(Cl)cc(Cl)cc2Cl)c2nc(Cc3cccc(N)c3C)[nH]c(=O)c12`, for which the IC50 is 10 nM in data set [1], more than 270 nM in data set [3], 190 nM in the data set with HCT-116 [6] and more than 2200 nM in [8].
Regarding `CCc1nn(-c2c(Cl)cc(Cl)cc2Cl)c2nc(Cc3ccc(NC(=O)CN)cc3)nc(O)c12`, the half-maximal inhibitory concentration (IC50) was 10 nM in [1], 70 nM in [3], 120 nM with HCT-116 [6] and 460 nM in data set [8]. Besides, in data set [7], the log partition coefficient (logP) was 3.3.
With `CN1CCC(c2c(O)cc(O)c3c(=O)cc(-c4ccccc4Cl)oc23)[C@@H](O)C1` (mixture of isomers), the IC50 was more than 500000 nM in data set [9], 490 nM in the data set with HCT-116 [12] and 6700 nM in the data set on AG1523.
In the data set on HCT-116 [12], `CN[C@@H]1C[C@H]2O[C@@](C)([C@@H]1OC)n1c3ccccc3c3c4c(c5c6ccccc6n2c5c31)C(=O)NC4` [STAUROSPORINE] returned an IC50 of 6 nM.
